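Tested at 5 concentrations; 48 h exposure; 96-well plates; endpoints linearly interpolated, else capped at highest concentration. GI50 is the concentration that inhibits growth by half.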 Calls of active or inactive are those of the source. Rule as the data show it: active = GI50 up to about 1.1 µM and inactive = higher.
Tests used:
Assay in all cases: DTP human tumour cell line panel, 48 h
786-0 = tested on: 786-0
ACHN = tested on: ACHN
CCRF-CEM = tested on: CCRF-CEM
COLO 205 = tested on: COLO 205
EKVX = tested on: EKVX
HCT-15 = tested on: HCT-15
HL-60 = tested on: HL-60
MOLT-4 = tested on: MOLT-4
Malme-3M = tested on: Malme-3M
OVCAR-4 = tested on: OVCAR-4
OVCAR-8 = tested on: OVCAR-8
SF-295 = tested on: SF-295
SN12C = tested on: SN12C
SNB-19 = tested on: SNB-19
TK-10 = tested on: TK-10
BT-549 = tested on: BT-549
MDA-MB-231 = tested on: MDA-MB-231
MDA-MB-435 = tested on: MDA-MB-435
T47D = tested on: T47D

| Structure (SMILES) | GI50 (786-0) | GI50 (ACHN) | GI50 (CCRF-CEM) | GI50 (COLO 205) | GI50 (EKVX) | GI50 (HCT-15) | GI50 (HL-60) | GI50 (MOLT-4) | GI50 (Malme-3M) | GI50 (OVCAR-4) | GI50 (OVCAR-8) | GI50 (SF-295) | GI50 (SN12C) | GI50 (SNB-19) | GI50 (TK-10) | GI50 (BT-549) | GI50 (MDA-MB-231) | GI50 (MDA-MB-435) | GI50 (T47D) |
| --- | --- | --- | --- | --- | --- | --- | --- | --- | --- | --- | --- | --- | --- | --- | --- | --- | --- | --- | --- |
| O=c1c2ccc3cccc4c(=O)cc(c5ccccc15)-c2c34 | > 100 µM (inactive) | > 100 µM (inactive) | > 100 µM (inactive) | > 100 µM (inactive) | > 100 µM (inactive) | > 100 µM | 43.9 µM (inactive) | 59.2 µM (inactive) | 30.5 µM (inactive) | > 100 µM (inactive) | 28.6 µM (inactive) | > 100 µM (inactive) | > 100 µM (inactive) | > 100 µM (inactive) | > 100 µM (inactive) | – | – | – | – |
| COC(=O)C(CC1=C(O)Nc2ccccc2N1)/C(=N/NC(N)=O)C(=O)Nc1ccccc1C (configuration not stated) | > 100 µM (inactive) | > 100 µM (inactive) | 21.7 µM (inactive) | 28.5 µM (inactive) | > 100 µM (inactive) | 16.6 µM | > 100 µM (inactive) | > 100 µM (inactive) | > 100 µM (inactive) | > 100 µM (inactive) | > 100 µM (inactive) | > 100 µM (inactive) | > 100 µM (inactive) | > 100 µM (inactive) | > 100 µM (inactive) | – | – | – | – |
| COc1ccccc1/C=C1\CCC(CNc2ccc(Cl)cc2)C1=O (configuration not stated) | 10.5 µM (inactive) | 0.59 µM (active) | 1.68 µM (inactive) | 2.39 µM (inactive) | 5.15 µM (inactive) | 1.41 µM | 2.18 µM (inactive) | 2.86 µM (inactive) | 14.5 µM (inactive) | 14.7 µM (inactive) | 3.46 µM (inactive) | 2.49 µM (inactive) | 13.7 µM (inactive) | 11.8 µM (inactive) | 5.18 µM (inactive) | – | – | – | – |
| O=c1c2c(-c3ccccc3)c3ccccc3nc2cnn1-c1ccccc1 | > 100 µM (inactive) | > 100 µM (inactive) | 81.7 µM (inactive) | 67 µM (inactive) | > 100 µM (inactive) | > 100 µM | 29.4 µM (inactive) | 96.2 µM (inactive) | > 100 µM (inactive) | > 100 µM (inactive) | > 100 µM (inactive) | > 100 µM (inactive) | > 100 µM (inactive) | > 100 µM (inactive) | > 100 µM (inactive) | – | – | – | – |
| COc1cc([C@@H]2c3cc4c(cc3[C@@H](NCc3cccc(F)c3)C3COC(=O)[C@@H]32)OCO4)cc(OC)c1O (some centres not stated) | 2.29 µM (inactive) | 1.67 µM (inactive) | 1.27 µM (inactive) | 12.9 µM (inactive) | 12.4 µM (inactive) | 3.57 µM | 1.19 µM (inactive) | 0.364 µM (active) | 4.69 µM (inactive) | 30.6 µM (inactive) | 6.53 µM (inactive) | 2.24 µM (inactive) | 2.14 µM (inactive) | 2.81 µM (inactive) | 9.68 µM (inactive) | – | – | – | – |
| O=[N+]([O-])c1ccc(/C=C(/c2ccc([N+](=O)[O-])o2)S(=O)(=O)c2ccccc2)o1 | 3.17 µM (inactive) | 2.84 µM (inactive) | – | 2.13 µM (inactive) | 0.0885 µM (active) | 11.6 µM | 2.75 µM (inactive) | – | 2.45 µM (inactive) | 4.22 µM (inactive) | 4.49 µM (inactive) | 18.6 µM (inactive) | – | 20.1 µM (inactive) | 4.1 µM (inactive) | 19.9 µM (inactive) | 3.19 µM (inactive) | 15.2 µM (inactive) | 11.4 µM (inactive) |
| COCN1C(=O)[C@@H]2CCCN2C(=O)c2ccc([N+](=O)[O-])cc21 | > 100 µM (inactive) | > 100 µM (inactive) | > 100 µM (inactive) | > 100 µM (inactive) | > 100 µM (inactive) | > 100 µM | 87.5 µM (inactive) | > 100 µM (inactive) | – | > 100 µM (inactive) | > 100 µM (inactive) | > 100 µM (inactive) | > 100 µM (inactive) | > 100 µM (inactive) | > 100 µM (inactive) | > 100 µM (inactive) | > 100 µM (inactive) | > 100 µM (inactive) | > 100 µM (inactive) |
| N#CC(C#N)=C/C=C(\Sc1c(Cl)c(Cl)nc(Cl)c1Cl)c1ccc(Cl)cc1 | 4.45 µM (inactive) | 16.8 µM (inactive) | 4.74 µM (inactive) | 24.4 µM (inactive) | 32.4 µM (inactive) | 12.9 µM | 10.8 µM (inactive) | 4.56 µM (inactive) | 23 µM (inactive) | 29.9 µM (inactive) | 5.05 µM (inactive) | 19 µM (inactive) | 20.8 µM (inactive) | 20.7 µM (inactive) | 21.2 µM (inactive) | – | 21.6 µM (inactive) | 5.4 µM (inactive) | 31.6 µM (inactive) |
| CN/C=C(\C(=O)c1ccc(OC)c(OC)c1)c1ccc(OC)cc1 | 11.4 µM (inactive) | 22 µM (inactive) | 3.85 µM (inactive) | 17.8 µM (inactive) | 27.4 µM (inactive) | 13.1 µM | 11.3 µM (inactive) | 19.9 µM (inactive) | > 10 µM (inactive) | 24.5 µM (inactive) | 15 µM (inactive) | 40.1 µM (inactive) | 15.3 µM (inactive) | 17.5 µM (inactive) | 17 µM (inactive) | – | – | – | – |

From ChEMBL document CHEMBL1201862, “PubChem BioAssay data set” (2004)
